From patent US11053213B2, “Pharmaceutical compounds” (ALMAC DISCOVERY LIMITED, priority 2016, dated 2021) come the findings set out here.

The experiment concerns the target USP19 (Homo sapiens (Human), UniProt O94966). The experiment in a line: USP19 activity assay (fluorescence polarisation, Ubiquitin-Lys-TAMRA substrate). In kind it is biochemical. Particulars: full-length USP19 2.5 nM, 30 min pre-incubation, Ub substrate 500 nM; average of at least two duplicate experiments. In general terms: Fluorescence polarisation rises when a labelled molecule tumbles more slowly, as on binding a larger partner.

Chain of USP19 (O94966 whole entry): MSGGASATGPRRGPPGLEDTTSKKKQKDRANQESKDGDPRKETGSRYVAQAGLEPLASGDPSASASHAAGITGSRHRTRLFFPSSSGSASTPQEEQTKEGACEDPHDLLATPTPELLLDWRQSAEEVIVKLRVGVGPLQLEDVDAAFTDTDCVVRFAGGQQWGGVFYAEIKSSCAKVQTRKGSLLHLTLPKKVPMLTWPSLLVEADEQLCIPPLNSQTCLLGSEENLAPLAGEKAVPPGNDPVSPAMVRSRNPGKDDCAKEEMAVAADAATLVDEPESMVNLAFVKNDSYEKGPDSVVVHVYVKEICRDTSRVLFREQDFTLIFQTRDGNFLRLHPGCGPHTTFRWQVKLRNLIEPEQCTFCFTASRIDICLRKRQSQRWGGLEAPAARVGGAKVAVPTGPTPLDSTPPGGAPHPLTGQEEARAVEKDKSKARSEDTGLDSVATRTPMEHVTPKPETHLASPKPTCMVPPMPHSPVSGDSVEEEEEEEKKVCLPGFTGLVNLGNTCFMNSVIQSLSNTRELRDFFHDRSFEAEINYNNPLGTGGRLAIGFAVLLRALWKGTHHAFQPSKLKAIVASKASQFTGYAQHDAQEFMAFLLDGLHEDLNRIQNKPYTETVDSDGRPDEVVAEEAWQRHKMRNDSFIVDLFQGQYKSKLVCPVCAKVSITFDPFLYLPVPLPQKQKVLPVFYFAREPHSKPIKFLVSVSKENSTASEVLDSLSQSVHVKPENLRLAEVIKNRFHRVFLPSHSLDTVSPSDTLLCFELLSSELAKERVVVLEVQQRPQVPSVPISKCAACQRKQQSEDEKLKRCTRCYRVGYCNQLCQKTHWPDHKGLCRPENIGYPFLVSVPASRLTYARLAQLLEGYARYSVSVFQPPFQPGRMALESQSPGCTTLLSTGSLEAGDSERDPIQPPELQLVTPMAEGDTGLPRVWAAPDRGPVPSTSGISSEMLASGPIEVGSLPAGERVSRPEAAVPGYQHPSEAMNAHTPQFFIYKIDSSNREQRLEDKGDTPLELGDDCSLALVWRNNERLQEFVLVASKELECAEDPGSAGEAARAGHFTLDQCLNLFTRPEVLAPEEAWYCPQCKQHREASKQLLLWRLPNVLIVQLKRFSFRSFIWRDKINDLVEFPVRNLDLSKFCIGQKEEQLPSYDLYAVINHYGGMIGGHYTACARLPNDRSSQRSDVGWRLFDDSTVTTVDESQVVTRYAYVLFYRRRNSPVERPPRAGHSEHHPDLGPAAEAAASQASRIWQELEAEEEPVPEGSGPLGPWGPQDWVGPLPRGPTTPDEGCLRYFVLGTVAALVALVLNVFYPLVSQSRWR

As for `C[C@H](CC(=O)N1CCC(O)(Cn2cc(-c3ccccc3)c(-c3ccccc3)cc2=O)CC1)c1ccccc1` [Example 98, (R)-1-((4-Hydroxy-1-(3-phenylbutanoyl)piperidin-4-yl)methyl)-4,5-diphenylpyridin-2(1H)-one], the IC50 was in the range of 5 to 50 µM. In the case of `CC(C)N(C)C(=O)c1cn(CC2(O)CCN(C(=O)CCC3CCCCC3)CC2)c(=O)cc1-c1ccccc1` [Example 92, 1-((1-(3-Cyclohexylpropanoyl)-4-hydroxypiperidin-4-yl)methyl)-N-isopropyl-N-methyl-6-oxo-4-phenyl-1,6-dihydropyridine-3-carboxamide] it was 0.5 to 5 µM. The figure for `C[C@H](CC(=O)N1CCC(O)(Cn2cc(-c3ccccc3)c(Cl)cc2=O)CC1)c1ccccc1` [Example 10, (R)-4-Chloro-1-((4-hydroxy-1 (3-phenylbutanoyl)piperidin-4-yl)methyl)-5-phenylpyridin-2(1H)-one] is 50 to 250 µM. In the case of `C[C@H](CC1CCCCC1)C(=O)N1CC[C@@](O)(Cn2cc(C(=O)N(C)C)c(-c3ccccc3F)cc2=O)C2(CCCC2)C1` [Example 226, 1-(((S)-7-((R)-3-Cyclohexyl-2-methylpropanoyl)-10-hydroxy-7-azaspiro[4.5]decan-10-yl)methyl)-4-(2-fluorophenyl)-N,N-dimethyl-6-oxo-1,6-dihydropyridine-3-carboxamide] it was under 0.5 µM; in that of `C[C@H](CC1CCCCC1)C(=O)N1CC[C@@](O)(Cn2cc(C(=O)N3CCNCC3)c(-c3ccccc3F)cc2=O)C2(CCCC2)C1` [Example 227, 1-(((S)-7-((R)-3-Cyclohexyl-2-methylpropanoyl)-10-hydroxy-7-azaspiro[4.5]decan-10-yl)methyl)-4-(2-fluorophenyl)-5-(piperazine-1-carbonyl)pyridin-2(1H)-one], under 0.5 µM. Consider `CC(C)N(C)C(=O)c1cn(CC2(O)CCN(C(=O)CCC3CCC3)CC2(C)C)c(=O)cc1-c1ccccc1` (racemic) [Example 79, (R,S)-1-((1-(3-Cyclobutylpropanoyl)-4-hydroxy-3,3-dimethylpiperidin-4-yl)methyl)-N-isopropyl-N-methyl-6-oxo-4-phenyl-1,6-dihydropyridine-3-carboxamide], for which the IC50 lay within 0.5 to 5 µM.

For the molecule `C[C@H](CC(=O)N1CCC(O)(Cn2cnc(C3=CCCCC3)cc2=O)CC1)c1ccccc1` [Example 28, (R)-6-(Cyclohex-1-en-1-yl)-3-((4-hydroxy-1-(3-phenylbutanoyl)piperidin-4-yl)methyl)pyrimidin-4(3H)-one], the IC50 was in the range of 50 to 250 µM. In the case of `C[C@H](CC(F)(F)F)C(=O)N1CC[C@@](O)(Cn2cc(C(=O)N(C)C)c(-c3ccccc3)cc2=O)C2(CCCC2)C1` [Example 216, 1-(((S)-10-Hydroxy-7-((R)-4,4,4-trifluoro-2-methylbutanoyl)-7-azaspiro[4.5]decan-10-yl)methyl)-N,N-dimethyl-6-oxo-4-phenyl-1,6-dihydropyridine-3-carboxamide] it was under 0.5 µM.

As to `CN(C)C(=O)c1cn(CC2(O)CCN(C(=O)c3cccn3Cc3ccccc3)CC23CCCC3)c(=O)cc1-c1ccccc1` (stereo not shown) [Example 198, 1-((7-(1-Benzyl-1H-pyrrole-2-carbonyl)-10-hydroxy-7-azaspiro[4.5]decan-10-yl)methyl)-N,N-dimethyl-6-oxo-4-phenyl-1,6-dihydropyridine-3-carboxamide], the IC50 fell in the range of 5 to 50 µM.

Turning to `CC(C)N(C)C(=O)c1cn(CC2(O)CCN(C(=O)C[C@@H](C)c3ccccc3)CC2)c(=O)cc1-c1ccccc1` [Example 101, (R)-1-((4-Hydroxy-1-(3-phenylbutanoyl)piperidin-4-yl)methyl)-N-isopropyl-N-methyl-6-oxo-4-phenyl-1,6-dihydropyridine-3-carboxamide], the IC50 is 5 to 50 µM. In the case of `C[C@H](CC(=O)N1CCC(O)(Cn2cc(C(=O)NCC3CC3)c(-c3ccccc3)cc2=O)CC1)c1ccccc1` [Example 104, (R)—N-(Cyclopropylmethyl)-1-((4-hydroxy-1-(3-phenylbutanoyl)piperidin-4-yl)methyl)-6-oxo-4-phenyl-1,6-dihydropyridine-3-carboxamide] it was 5 to 50 µM; in that of `C[C@H](CC1CCCCC1)C(=O)N1CCC(O)(Cn2cc(-c3cccc(CN)c3)c(-c3ccccc3F)cc2=O)CC1` [Example 52, (R)-5-(3-(Aminomethyl)phenyl)-1-((1-(3-cyclohexyl-2-methylpropanoyl)-4-hydroxypiperidin-4-yl)methyl)-4-(2-fluorophenyl)pyridin-2(1H)-one], 0.5 to 5 µM; in that of `C[C@H](CC1CCCCC1)C(=O)N1CC[C@](O)(Cn2cc(C(=O)N(C)C)c(-c3ccccc3)cc2=O)C2(CCCC2)C1` [Example 209, 1-(((R)-7-((R)-3-Cyclohexyl-2-methylpropanoyl)-10-hydroxy-7-azaspiro[4.5]decan-10-yl)methyl)-N,N-dimethyl-6-oxo-4-phenyl-1,6-dihydropyridine-3-carboxamide], 5 to 50 µM. For the molecule `C[C@H](CC(=O)N1CCC(O)(Cn2cc(Br)c(-c3ccccc3)cc2=O)CC1)c1ccccc1` [Example 1, (R)-5-Bromo-1-((4-hydroxy-1-(3-phenylbutanoyl)piperidin-4-yl)methyl)-4-phenylpyridin-2(1H)-one], the IC50 is 50 to 250 µM. Turning to `C[C@H](CC1CCCCC1)C(=O)N1CC[C@@](O)(Cn2cc(C(=O)N(C)C)c(-c3ccccc3)cc2=O)C2(CCCC2)C1` [Example 211, 1-(((S)-7-((R)-3-Cyclohexyl-2-methylpropanoyl)-10-hydroxy-7-azaspiro[4.5]decan-10-yl)methyl)-N,N-dimethyl-6-oxo-4-phenyl-1,6-dihydropyridine-3-carboxamide], the concentration for half-maximal inhibition (IC50) is under 0.5 µM.

As to `C[C@H](CC1CCCCC1)C(=O)N1CC[C@](O)(Cn2cc(C(=O)N3CCNCC3)c(-c3ccccc3)cc2=O)C2(CCCC2)C1` [Example 210, 1-(((R)-7-((R)-3-Cyclohexyl-2-methylpropanoyl)-10-hydroxy-7-azaspiro[4.5]decan-10-yl)methyl)-4-phenyl-5-(piperazine-1-carbonyl)pyridin-2(1H)-one], the 50% inhibitory concentration (IC50) was in the range of 5 to 50 µM. The figure for `CC(C)CC1(C(=O)N2CCC(O)(Cn3cnc(-c4ccccc4F)cc3=O)C(C)(C)C2)CC1` (racemic) [Example 69, (R,S)-6-(2-Fluorophenyl)-3-((4-hydroxy-1-(1-isobutylcyclopropane-1-carbonyl)-3,3-dimethylpiperidin-4-yl)methyl)pyrimidin-4(3H)-one] is 5 to 50 µM; for `C[C@H](CC(=O)N1CCC(O)(Cn2cc(C=O)c(-c3ccccc3)cc2=O)CC1)c1ccccc1` [Example 45, (R)-1-((4-Hydroxy-1-(3-phenylbutanoyl)piperidin-4-yl)methyl)-6-oxo-4-phenyl-1,6-dihydropyridine-3-carbaldehyde] it is 50 to 250 µM; for `CC(CN1CCOCC1)C(=O)N1CCC(O)(Cn2cc(C(=O)N(C)C)c(-c3ccccc3)cc2=O)C2(CCCC2)C1` (stereo not shown) [Example 163, 1-((10-Hydroxy-7-(2-methyl-3-morpholinopropanoyl)-7-azaspiro[4.5]decan-10-yl)methyl)-N,N-dimethyl-6-oxo-4-phenyl-1,6-dihydropyridine-3-carboxamide] it is 5 to 50 µM. In the case of `C[C@H](CC1CCCCC1)C(=O)N1CCC(O)(Cn2cnc(-c3ccccc3F)cc2=O)C2(CCCC2)C1` (stereo partly drawn) [Example 119, 3-((7-((R)-3-Cyclohexyl-2-methylpropanoyl)-10-hydroxy-7-azaspiro[4.5]decan-10-yl)methyl)-6-(2-fluorophenyl)pyrimidin-4(3H)-one] it was under 0.5 µM; in that of `CN(C)C(=O)c1cn(CC2(O)CCN(C(=O)C(O)CC3CCCCC3)CC23CCCC3)c(=O)cc1-c1ccccc1` (stereo not shown) [Example 157, 1-((7-(3-Cyclohexyl-2-hydroxypropanoyl)-10-hydroxy-7-azaspiro[4.5]decan-10-yl)methyl)-N,N-dimethyl-6-oxo-4-phenyl-1,6-dihydropyridine-3-carboxamide], under 0.5 µM; in that of `CN(C)C(=O)c1cn(CC2(O)CCN(C(=O)COC3CCC3)CC23CCCC3)c(=O)cc1-c1ccccc1` (stereo not shown) [Example 201, 1-((7-(2-Cyclobutoxyacetyl)-10-hydroxy-7-azaspiro[4.5]decan-10-yl)methyl)-N,N-dimethyl-6-oxo-4-phenyl-1,6-dihydropyridine-3-carboxamide], 5 to 50 µM. In the case of `C[C@H](CC1CCCCC1)C(=O)N1CCC(O)(Cn2cc(C(=O)N(C)C)c(-c3ccccc3)cc2=O)C2(CCCCC2)C1` (stereo partly drawn) [Example 237, 1-((2-((R)-3-Cyclohexyl-2-methylpropanoyl)-5-hydroxy-2-azaspiro[5.5]undecan-5-yl)methyl)-N,N-dimethyl-6-oxo-4-phenyl-1,6-dihydropyridine-3-carboxamide] it was under 0.5 µM. Regarding `C[C@H](CC(=O)N1CCC(O)(Cn2cc(C(=O)N(C)c3ccccc3)c(-c3ccccc3)cc2=O)CC1)c1ccccc1` [Example 107, (R)-1-((4-Hydroxy-1-(3-phenylbutanoyl)piperidin-4-yl)methyl)-N-methyl-6-oxo-N,4-diphenyl-1,6-dihydropyridine-3-carboxamide], the IC50 fell in the range of 5 to 50 µM. For the molecule `O=C(CCC1CCCC1)N1CCC(O)(Cn2cnc(-c3ccccc3F)cc2=O)CC1` [Example 4, 3-((1-(3-Cyclopentylpropanoyl)-4-hydroxypiperidin-4-yl)methyl)-6-(2-fluorophenyl)pyrimidin-4(3H)-one], the IC50 lay in the range of 50 to 250 µM.

Turning to `C[C@H](CC(=O)N1CCC(O)(Cn2cc(C(=O)NCCO)c(-c3ccccc3)cc2=O)CC1)c1ccccc1` [Example 115, (R)-1-((4-Hydroxy-1-(3-phenylbutanoyl)piperidin-4-yl)methyl)-N-(2-hydroxyethyl)-6-oxo-4-phenyl-1,6-dihydropyridine-3-carboxamide], the IC50 lay within 5 to 50 µM. In the case of `CC1(C)CN(C(=O)[C@H](CO)CC2CCC2)CCC1(O)Cn1cnc(-c2ccccc2F)cc1=O` (stereo partly drawn) [Example 200, 3-((1-((S)-3-Cyclobutyl-2-(hydroxymethyl)propanoyl)-4-hydroxy-3,3-dimethylpiperidin-4-yl)methyl)-6-(2-fluorophenyl)pyrimidin-4(3H)-one], the half-maximal inhibitory concentration (IC50) fell in the range of 0.5 to 5 µM. Take `C[C@H](CC(=O)N1CCC(O)(Cn2cnc(-c3ccsc3)cc2=O)CC1)c1ccccc1` [Example 22, (R)-3-((4-Hydroxy-1-(3-phenylbutanoyl)piperidin-4-yl)methyl)-6-(thiophen-3-yl)pyrimidin-4(3H)-one]: the IC50 fell in the range of 5 to 50 µM.

In general, IC50 refers to the concentration that gives 50% inhibition.
